What is called EC50 is the concentration needed to bring the measured effect to its halfway point.

The test system of assay [1] is pp28-luciferase HCMV Towne. The assay is described as follows: microbe, parasite or virus in culture. As to conditions: for normalized pp28-luciferase activity: emetine 75 nM, 72 hpi. The assay is classed as cell-based, Human Cytomegalovirus. On the procedure: The pp28-luciferase HCMV Towne and a GCV-resistant pp28-luciferase were used. The recombinant viruses express luciferase under the control of the late CMV gene promoter, pp28. Luciferase expression is activated 48–72 hours post infection (hpi). The recombinant viruses provide a highly-sensitive reporter system which correlates with plaque reduction assay. […] Human herpes virus strains were: luciferase HSV1- KOS/Dlux/oriS [52] and clinical isolates of HSV2. The clinical isolates were provided by the clinical microbiology laboratory with no identifiers that can link to a specific subject.
Infection with HCMV or HSV was performed in HFFs, and infection with mouse CMV was performed in MEFs. For HCMV, cells were seeded in either a 96-well plate or 100 mm culture plates (Corning Costar, Sigma Aldrich) at 0.5 or 2 million cells /plate. Following 90 minute adsorption, media was removed and cells were washed with PBS. Media containing 4% FBS and compounds were added to each well. Infected treated HFFs were collected at 72 hpi and lysates were assayed for luciferase activity using a luciferase assay kit (Promega, Madison, WI) on GloMax-Multi+ Detection System (Promega). In second cycle assays, supernatants were collected from all conditions of the first cycle at 96 hpi and used for infection of fresh HFFs in 96-well plates. […] For HSV1-KOS/Dlux/oriS, a luciferase assay was performed at 24 hpi. […] For HCMV or MCMV, HFFs or MEFs were seeded at 0.5 or 2 million cells /plate in a 12-well plate and infected 24 hours later at 100 PFU/well. Following virus adsorption (60 min and 90 min for HSV and HCMV, respectively), virus was aspirated, and DMEM containing 4% fetal bovine serum (FBS) with (for HSV) or without (for HCMV/MCMV) 0.5% carboxymethyl-cellulose, were added with the compounds at indicated concentrations into triplicate wells. After incubation at 37°C for 10 days (for HCMV), 3 days for MCMV or 2 days (for HSV), the overlay was removed and plaques were counted after crystal violet staining.

A further assay relates to HCMV Towne. The assay is described as follows: HCMV plaque reduction assay in HFFs. The assay is classed as cell-based, Human Cytomegalovirus. On the procedure: Human Foreskin Fibroblasts (HFFs) passage 12–16 (ATCC, CRL-2088) and mouse embryonic fibroblasts (MEFs) passage 9–14 (ATCC, CRL-1658) were grown in Dulbecco's Modified Eagle Medium (DMEM) containing 10% fetal bovine serum (FBS) (Gibco, Carlsbad, CA) in a 5% CO2 incubator at 37°C. Infection with HCMV or HSV was performed in HFFs, and infection with mouse CMV was performed in MEFs. For HCMV, cells were seeded in either a 96-well plate or 100 mm culture plates (Corning Costar, Sigma Aldrich) at 0.5 or 2 million cells /plate. Following 90 minute adsorption, media was removed and cells were washed with PBS. Media containing 4% FBS and compounds were added to each well. Infected treated HFFs were collected at 72 hpi and lysates were assayed for luciferase activity using a luciferase assay kit (Promega, Madison, WI) on GloMax-Multi+ Detection System (Promega). In second cycle assays, supernatants were collected from all conditions of the first cycle at 96 hpi and used for infection of fresh HFFs in 96-well plates. Luciferase activity was measured 72 h following second cycle infection. For HSV1-KOS/Dlux/oriS, a luciferase assay was performed at 24 hpi. Plaque assays were performed with clinical isolates of HSV2 and HCMV Towne (ATCC VR-977). HFFs were seeded at […] in 12-well plates and infected 24 h later with HSV2 at 200 PFU/well. For HCMV or MCMV, HFFs or MEFs were seeded at 0.5 or 2 million cells /plate in a 12-well plate and infected 24 hours later at 100 PFU/well. Following virus adsorption (60 min and 90 min for HSV and HCMV, respectively), virus was aspirated, and DMEM containing 4% fetal bovine serum (FBS) with (for HSV) or without (for HCMV/MCMV) 0.5% carboxymethyl-cellulose, were added with the compounds at indicated concentrations into triplicate wells. After incubation at 37°C for 10 days (for HCMV), 3 days for MCMV or 2 days (for HSV), the overlay was removed and plaques were counted after crystal violet staining.
On the technique in general: In a plaque reduction assay, fewer plaques than in the control indicate reduced infectivity or spread.

The subject of assay [2] is pp28-luciferase HCMV Towne. The assay is described as follows: Drug combination with GCV, Bliss model. As to conditions: emetine combined with GCV, luciferase assay. The assay is classed as cell-based, Human Cytomegalovirus. On the procedure: The combined inhibitory effect of compounds on HCMV replication was determined in infected HFFs as previously reported. The Bliss model, in which drug combination represents the product of two probabilistically independent events, was used for analysis.

A further assay concerns p21. In words: qRT-PCR for p21. Type of assay: cell-based, human. As to conditions: emetine 75 nM, infected high-density cells. On the procedure:
Total RNA was isolated from cultured cells using RNeasy Mini kit (Qiagen). RevertAid first strand cDNA synthesis kit (Fermentas life sciences, Cromwell Park, MD) was used to synthesize first strand cDNA from total RNA using oligo-dT primers. Negative RT reactions were included to ensure the specificity of qRT-PCR reactions. Synthesis of first strand cDNA from mRNA template was carried out at 42°C for 1 h. Quantitative RT-PCR was performed in triplicates using specific primers for p21 (F: 5’ […] 3’; R: 5’ […] 3’) and SYBR green (Fermentas life science) with two-step cycling protocol (95°C for 15 s, 60°C for 1 min). GAPDH (F: 5’ […] 3’; R: 5’ […] 3’) was used as the internal control.
A general note: In qPCR the cycle at which signal appears reflects the starting amount.

Another assay addresses T1, RPS14-MDM2 (Homo sapiens, UniProt P62263).
T1 construct: endogenous in cells; host or cells: HFFs (ATCC CRL-2088), infected with HCMV Towne, MG132-treated
The assay is described as follows: Co-immunoprecipitation RPS14-MDM2. The assay is classed as cell-based. Conditions: emetine 75 nM, infected high-density cells, 24 hpi, MG132. The protocol:
Non-infected, infected or emetine-treated HFFs were treated with MG132 (10 μM) for 12h. Cells were harvested after 24 hpi and lysed with IP buffer containing 150 mM NaCl, 50mM Tris pH 7.5, 2 mM EDTA, 0.5% TritonX-100 and 0.5% NP-40-40. 1 mg of lysate was precleared with bead slurry for 30 min. The precleared lysates were incubated with anti-MDM2 (2 μg) antibody overnight. The antibody complexes were isolated using protein A/G beads (Santa Cruz), washed three times with 50% IP buffer. The immunoprecipitate-protein A/G beads were boiled in SDS sample buffer, and the supernatant was analyzed on SDS-PAGE gels after immunoblotting as described previously. 1% of the cell lysate used for IP was loaded on gels as ‘Input’. Confirmatory reverse IPs were performed as described in each experiment. Isotype control antibodies included: rabbit IgG polyclonal, mouse IgG2a kappa and mouse IgG2b kappa monoclonal (Abcam). Mouse monoclonal RPS19 antibody (Abcam) served as an additional negative control for the IPs. Densitometry analysis was performed to determine relative ratio of immunoprecipitated protein to its input level.

Where a name gives a salt, the structure may show the parent alone.

Regarding `CC[C@H]1CN2CCc3cc(OC)c(OC)cc3[C@@H]2C[C@@H]1C[C@H]1NCCc2cc(OC)c(OC)cc21` [emetine, emetine dihydrochloride hydrate], the EC50 stood at 40 ± 1.72 nM in assay [1] (Human betaherpesvirus 5, read-out: EC50 against pp28-luciferase Towne) and 68 nM in the assay with HCMV Towne (Human betaherpesvirus 5, read-out: Mean EC50 ± SD). Besides, the “normalized pp28-luciferase activity” value is reported as “significant reduction” in assay [1] (increased cell density) and “no reduction” in assay [1] (low cell density). Moreover, in assay [1] (pp28-luciferase Towne, HFFs), the “Hill slope of the concentration-response curve” value turned out to be 3.1. Also, in the assay on HCMV Towne (emetine 75 nM, 2 million cells/plate as compared to 0.5 million cells/plate), the “reduction in the number and size of plaques” value stood at 30 fold. In assay [2], the “HCMV inhibition in combination with GCV” value is “synergistic”. In addition, the “increase in p21 mRNA” value is 5.4 fold in the assay with p21 (24 hpi) and 6.7 fold in the assay on p21 (72 hpi). Besides, on RPS14-MDM2, the “interaction between RPS14 and MDM2” value was “strongly induced the interaction between RPS14 and MDM2”.

Values taken from publication PMC4919066 (PLoS Pathogens, 2016).
